Assay results from ChEMBL document CHEMBL1201862, “PubChem BioAssay data set” (2004).
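All cell lines were grown in 96-well plates and treated with compound for 48 hours. GI50 = concentration required for 50% inhibition of growth.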 Calls of active or inactive are those of the source. Rule as the data show it: active = GI50 up to about 1.1 µM and inactive = higher. Where a SMILES comes first, the peptide text is derived from it. The star is where a group is joined. Cbz = O=C(OCc1ccccc1)*; Boc = CC(C)(C)OC(=O)*; Bn = c1ccc(C*)cc1

How the values were obtained:
Experiment in all cases: growth of human tumour cells (NCI), 48 h
A549 = system: A549
ACHN = system: ACHN
BT-549 = system: BT-549
COLO 205 = system: COLO 205
HCT-116 = system: HCT-116
HT-29 = system: HT-29
M14 = system: M14
NCI-H226 = system: NCI-H226
NCI-H522 = system: NCI-H522
NCI/ADR-RES = system: NCI/ADR-RES
RPMI-8226 = system: RPMI-8226
SF-295 = system: SF-295
SK-MEL-28 = system: SK-MEL-28
SK-OV-3 = system: SK-OV-3
SN12C = system: SN12C
SR = system: SR
T47D = system: T47D
TK-10 = system: TK-10
Hs-578T = system: Hs-578T
SNB-75 = system: SNB-75

Row | Compound | GI50 (A549) | GI50 (ACHN) | GI50 (BT-549) | GI50 (COLO 205) | GI50 (HCT-116) | GI50 (HT-29) | GI50 (M14) | GI50 (NCI-H226) | GI50 (NCI-H522) | GI50 (NCI/ADR-RES) | GI50 (RPMI-8226) | GI50 (SF-295) | GI50 (SK-MEL-28) | GI50 (SK-OV-3) | GI50 (SN12C) | GI50 (SR) | GI50 (T47D) | GI50 (TK-10) | GI50 (Hs-578T) | GI50 (SNB-75)
1 | CN(C)CCCNc1ncnc2c1ncn2C1OC(CO)C(O)C1O (stereo unspecified) | > 100 µM (inactive) | > 100 µM (inactive) | 92.7 µM (inactive) | > 100 µM (inactive) | > 100 µM (inactive) | > 100 µM (inactive) | > 100 µM (inactive) | > 100 µM (inactive) | > 100 µM (inactive) | > 100 µM (inactive) | > 100 µM (inactive) | > 100 µM (inactive) | > 100 µM (inactive) | > 100 µM (inactive) | > 100 µM (inactive) | > 100 µM (inactive) | > 100 µM (inactive) | > 100 µM (inactive) |  | 
2 | CC(C)(C)OC(=O)NC(Cc1ccc(OCc2ccccc2)cc1)C(=O)NC(CCCCNC(=O)OCc1ccccc1)C(=O)O (stereo unspecified) (Boc-Tyr(Bn)-Lys(Cbz)-OH; configuration not given here) | > 100 µM (inactive) |  | 17.3 µM (inactive) | 29.5 µM (inactive) | 31.3 µM (inactive) | 62.1 µM (inactive) | 2.72 µM (inactive) | 96.4 µM (inactive) |  |  | 32.7 µM (inactive) |  | 17.4 µM (inactive) |  | 30.5 µM (inactive) | 28.6 µM (inactive) |  | 67.3 µM (inactive) | 69.3 µM (inactive) | > 100 µM (inactive)
3 | CCOC(=O)C1(Cc2ccccc2)Cc2ccccc2C1=O (stereo unspecified) | 23.7 µM (inactive) | 28.1 µM (inactive) |  | 19.6 µM (inactive) | 27.4 µM (inactive) | 23.6 µM (inactive) | 16.6 µM (inactive) | 19.7 µM (inactive) |  | 21.9 µM (inactive) | 20.4 µM (inactive) | 37.1 µM (inactive) | 24.8 µM (inactive) | 30.8 µM (inactive) | 27.7 µM (inactive) | 22 µM (inactive) | 28.6 µM (inactive) | 36.8 µM (inactive) | 35.1 µM (inactive) | 25.4 µM (inactive)
4 | COc1cccc2c1C(=O)c1c(O)c3c(c(O)c1C2=O)CC(O)(C(O)CO)CC3OC1CC(N2CCOCC2)C(O)C(C)O1 (stereo unspecified) | 0.00108 µM (active) | 0.00193 µM (active) | 0.0294 µM (active) | 0.00177 µM (active) | < 0.001 µM (active) | 0.00308 µM (active) | 0.00295 µM (active) | 0.0118 µM (active) | 0.00273 µM (active) | 0.0162 µM (active) | 0.00378 µM (active) | 0.00206 µM (active) | 0.00406 µM (active) | 0.00362 µM (active) | 0.00205 µM (active) | 0.00214 µM (active) |  | 0.00377 µM (active) | 0.0146 µM (active) | 0.00388 µM (active)
5 | CCC(NC(C)c1ccccc1)C(O)c1ccc(OCc2ccccc2)c(OCc2ccccc2)c1 (stereo unspecified) | 16 µM (inactive) | 18 µM (inactive) |  | 2.23 µM (inactive) | 14.5 µM (inactive) | 3.31 µM (inactive) | 4.86 µM (inactive) | 18.6 µM (inactive) | 15.7 µM (inactive) | 15.8 µM (inactive) | 4.04 µM (inactive) | 20.4 µM (inactive) | 19.9 µM (inactive) | 15.5 µM (inactive) | 15.1 µM (inactive) | 2.47 µM (inactive) | 15.1 µM (inactive) | 17.8 µM (inactive) | 19 µM (inactive) | 10.6 µM (inactive)
6 | COC(=O)/C=C/c1ccc(OP(=O)(O)O)c(OC)c1 | > 100 µM (inactive) | > 100 µM (inactive) | > 100 µM (inactive) | > 100 µM (inactive) | > 100 µM (inactive) | > 100 µM (inactive) | > 100 µM (inactive) | > 100 µM (inactive) | > 100 µM (inactive) |  | > 100 µM (inactive) | > 100 µM (inactive) | > 100 µM (inactive) | > 100 µM (inactive) | > 100 µM (inactive) | > 100 µM (inactive) | > 100 µM (inactive) | > 100 µM (inactive) | > 100 µM (inactive) | > 100 µM (inactive)
7 | COc1cc2c(cc1OCCCN1CCOCC1)N=C[C@@H]1CCCN1C2=O | 35.7 µM (inactive) | 14 µM (inactive) | 6.53 µM (inactive) | 1.87 µM (inactive) | 12.8 µM (inactive) | 8.79 µM (inactive) | 11 µM (inactive) | 4.66 µM (inactive) | 1.25 µM (inactive) | 35 µM (inactive) | 2.21 µM (inactive) | 9.59 µM (inactive) | 12.6 µM (inactive) | 10.8 µM (inactive) | 23.6 µM (inactive) | 3.57 µM (inactive) |  | 19.8 µM (inactive) | 16.9 µM (inactive) | 
8 | COc1ccc2nc3n(c2c1)C(c1c(Cl)cccc1Cl)SC3 (stereo unspecified) | > 100 µM (inactive) | > 100 µM (inactive) | > 100 µM (inactive) | > 100 µM (inactive) | > 100 µM (inactive) |  | > 100 µM (inactive) | > 100 µM (inactive) |  | > 100 µM (inactive) | > 100 µM (inactive) | > 100 µM (inactive) | > 100 µM (inactive) | > 100 µM (inactive) | > 100 µM (inactive) | > 100 µM (inactive) | > 100 µM (inactive) | > 100 µM (inactive) |  | > 100 µM (inactive)
9 | N[C@H](Cc1ccc2oc3cc(=O)c4ccccc4c-3nc2c1)C(=O)O | 33.7 µM (inactive) | > 100 µM (inactive) |  | 30.3 µM (inactive) | 46.3 µM (inactive) | 29.2 µM (inactive) | 19.3 µM (inactive) | 40.8 µM (inactive) | 44.7 µM (inactive) | > 100 µM (inactive) | 24.2 µM (inactive) | 42 µM (inactive) | > 100 µM (inactive) | > 100 µM (inactive) | 42.5 µM (inactive) | 17.9 µM (inactive) | > 100 µM (inactive) | 97.5 µM (inactive) | 39.6 µM (inactive) | 67 µM (inactive)
10 | CC1(C(O)c2ccccc2)CN(C(C)(C)C)C(=O)/C1=C\Sc1ccccc1 (stereo unspecified) | 20.2 µM (inactive) | 64.1 µM (inactive) | 59.6 µM (inactive) | 20.9 µM (inactive) | 25.4 µM (inactive) | 21.1 µM (inactive) | 51.3 µM (inactive) |  | 2.48 µM (inactive) | 35.6 µM (inactive) | 9.95 µM (inactive) | 28.3 µM (inactive) | > 100 µM (inactive) | 44.9 µM (inactive) | 33.9 µM (inactive) | 30.3 µM (inactive) | 13.3 µM (inactive) | > 100 µM (inactive) |  | 
11 | O=c1[nH]/c(=C/c2cccs2)c(=O)[nH]/c1=C/c1ccc(OCc2ccccc2)cn1 | 0.144 µM (active) | 3.24 µM (inactive) | 0.0239 µM (active) | 0.323 µM (active) | 0.0494 µM (active) | 0.124 µM (active) | 0.0309 µM (active) | 0.312 µM (active) | 0.0171 µM (active) | 0.0266 µM (active) | 0.0618 µM (active) | 0.0206 µM (active) | 3.3 µM (inactive) | 0.0426 µM (active) | 0.064 µM (active) | < 0.0142 µM (active) |  | 1.74 µM (inactive) | 0.0276 µM (active) | 0.027 µM (active)
12 | O=[N+]([O-])/C(Cl)=C(\Sc1ccccc1)C(Cl)=C(Cl)Cl | 0.229 µM (active) | 1.66 µM (inactive) |  | 0.282 µM (active) | 0.147 µM (active) | 0.355 µM (active) | 0.188 µM (active) | 2.23 µM (inactive) | 0.26 µM (active) | 0.216 µM (active) | 0.242 µM (active) | 3.43 µM (inactive) | 1.41 µM (inactive) | 4.21 µM (inactive) | 0.373 µM (active) | 0.292 µM (active) | 1.28 µM (inactive) | 1.8 µM (inactive) | 0.562 µM (active) | 
13 | Cc1cn(C2C=CC(COP(=O)(OCc3ccc([N+](=O)[O-])o3)N(C)CCCCCl)O2)c(=O)[nH]c1=O (stereo unspecified) | 10.9 µM (inactive) | 15.3 µM (inactive) |  | 2.4 µM (inactive) | 8.65 µM (inactive) | 11.7 µM (inactive) | 4.69 µM (inactive) | 10.6 µM (inactive) | 1.85 µM (inactive) | 33.8 µM (inactive) | 2.69 µM (inactive) | 15.6 µM (inactive) | 10.6 µM (inactive) | 11.7 µM (inactive) | 10.8 µM (inactive) | 1.89 µM (inactive) | 1.57 µM (inactive) | 16.6 µM (inactive) | 2.17 µM (inactive) | 1.58 µM (inactive)
14 | C=CCc1oc(C)nc1CCCC | > 100 µM (inactive) | > 100 µM (inactive) | > 100 µM (inactive) | > 100 µM (inactive) | > 100 µM (inactive) | > 100 µM (inactive) | > 100 µM (inactive) | > 100 µM (inactive) | > 100 µM (inactive) | > 100 µM (inactive) |  | > 100 µM (inactive) | > 100 µM (inactive) | > 100 µM (inactive) | > 100 µM (inactive) |  | > 100 µM (inactive) | > 100 µM (inactive) | > 100 µM (inactive) | > 100 µM (inactive)
15 | O/N=C1/C2CC3CC1(c1ccccc1)CC(/C3=N/O)/C2=N\O (stereo unspecified) | > 100 µM (inactive) | > 100 µM (inactive) | > 100 µM (inactive) | > 100 µM (inactive) | > 100 µM (inactive) | > 100 µM (inactive) | > 100 µM (inactive) | > 100 µM (inactive) | > 100 µM (inactive) |  | > 100 µM (inactive) | > 100 µM (inactive) | > 100 µM (inactive) | > 100 µM (inactive) | > 100 µM (inactive) | > 100 µM (inactive) | > 100 µM (inactive) | > 100 µM (inactive) | > 100 µM (inactive) | > 100 µM (inactive)
